Results: patent US7811797B2, “α-isomaltosylglucosaccharide-forming enzyme, process and uses of the same” (Kabushiki Kaisha Hayashibara Seibutsu Kagaku Kenkyujo, priority 2000, dated 2010)

What was measured:
Design in all cases: key: −: no saccharide-transferred product was detected through transfer reaction to acceptor; ∀: a saccharide-transferred product was detected in an amount less than one percent through transfer reaction to acceptor; +: a saccharide-transferred product was detected in an amount over one percent but less than ten percent through transfer reaction to acceptor; ++: a saccharide-transferred product was detected in an amount over ten percent through transfer reaction to acceptor
[1] = system: α-isomaltosylglucosaccharide-forming enzyme; assay: Transfer-acceptor specificity, Enzyme of Strain C9; format: biochemical, Bacillus globisporus C9; conditions: acceptor 1.6%, PINE-DEX #100 donor 4%, one unit/g donor, 30° C., pH 6.0, 24 hours
Method: (§1) Using different saccharides, it was tested whether the saccharides were used as transferring-acceptors for the α-isomaltosylglucosaccharide-forming enzyme of the present invention. A solution of D-glucose, D-xylose, L-xylose, D-galactose, D-fructose, D-mannose, D-arabinose, D-fucose, D-psicose, L-sorbose, L-rhamnose, methyl-α-glucopyranoside, methyl-β-glucopyranoside, N-acetyl-glucosamine, sorbitol, trehalose, isomaltose, isomaltotriose, cellobiose, gentibiose, glycerol, maltitol, lactose, sucrose, α-cyclodextrin, β-cyclodextrin, γ-cyclodextrin, or L-ascorbic acid was prepared.
(§2) To each solution with a saccharide concentration of 1.6% was added “PINE-DEX #100”, a partial starch hydrolysate, as a saccharide donor, to give a concentration of 4%, and admixed with one unit/g saccharide donor, d.s.b., of either of purified specimens of α-isomaltosylglucosaccharide-forming enzyme from Bacillus globisporus C9 obtained by the method in Experiment 4-2, Bacillus globisporus C11 obtained by the method in Experiment 7-2, Bacillus globisporus N75 obtained by the method in Experiment 11-2, or Arthrobacter globiformis A19 obtained by the method in Experiment 15-2, and incubated at 30° C. and pH 6.0, except that pH 8.4 was used for the enzyme from Arthrobacter globiformis A19, for 24 hours. The reaction mixtures of the post-enzymatic reactions were analyzed on gas chromatography (abbreviated as “GLC” hereinafter) for monosaccharides and disaccharides as acceptors, and on HPLC for trisaccharides as acceptors to confirm whether these saccharides could be used as their transfer acceptors. In the case of performing GLC, the following apparatuses and conditions are used: GLC apparatus, “GC-16A” commercialized by Shimadzu Corporation, Tokyo, Japan; column, a stainless-steel column, 3 mm in diameter and 2 m in length, packed with 2% “SILICONE OV-17/[…]”, commercialized by GL Sciences Inc., Tokyo, Japan; carrier gas, nitrogen gas at a flow rate of 40 ml/min under temperature conditions of increasing from 160° C. to 320° C. at an increasing temperature rate of 7.5° C./min; and detection, a hydrogen flame ionization detector. In the case of HPLC analysis, the apparatuses and conditions used are: HPLC apparatus, “CCPD” commercialized by Tosoh Corporation, Tokyo, Japan; column, “ODS-AQ-303” commercialized by YMC Co., Ltd., Tokyo, Japan; eluent, water at a flow rate of 0.5 ml/min; and detection, a differential refractometer.

[2] = system: α-isomaltosylglucosaccharide-forming enzyme; assay: Transfer-acceptor specificity, Enzyme of Strain C11; format: biochemical, Bacillus globisporus C11; conditions: acceptor 1.6%, PINE-DEX #100 donor 4%, one unit/g donor, 30° C., pH 6.0, 24 hours
Method: as §1, §2

[3] = system: α-isomaltosylglucosaccharide-forming enzyme; assay: Transfer-acceptor specificity, Enzyme of Strain N75; format: biochemical, Bacillus globisporus N75; conditions: acceptor 1.6%, PINE-DEX #100 donor 4%, one unit/g donor, 30° C., pH 6.0, 24 hours
Method: as §1, §2

[4] = system: α-isomaltosylglucosaccharide-forming enzyme; assay: Transfer-acceptor specificity, Enzyme of Strain A19; format: biochemical, Arthrobacter globiformis A19; conditions: acceptor 1.6%, PINE-DEX #100 donor 4%, one unit/g donor, 30° C., pH 8.4, 24 hours
Method: as §1, §2

Row | SMILES | Product of transferring reaction, Enzyme of Strain C9 [1] | Product of transferring reaction, Enzyme of Strain C11 [2] | Product of transferring reaction, Enzyme of Strain N75 [3] | Product of transferring reaction, Enzyme of Stain A19 [4]
1 | O=C[C@H](O)[C@@H](O)[C@H](O)CO [D-Xylose] | ++ (a saccharide-transferred product was detected in an amount over ten percent through transfer reaction to acceptor) | ++ (a saccharide-transferred product was detected in an amount over ten percent through transfer reaction to acceptor) | ++ (a saccharide-transferred product was detected in an amount over ten percent through transfer reaction to acceptor) | + (a saccharide-transferred product was detected in an amount over one percent but less than ten percent through transfer reaction to acceptor)
2 | CO[C@H]1O[C@H](CO)[C@@H](O)[C@H](O)[C@H]1O [Methyl-α-glucopyranoside] | ++ (a saccharide-transferred product was detected in an amount over ten percent through transfer reaction to acceptor) | ++ (a saccharide-transferred product was detected in an amount over ten percent through transfer reaction to acceptor) | ++ (a saccharide-transferred product was detected in an amount over ten percent through transfer reaction to acceptor) | ++ (a saccharide-transferred product was detected in an amount over ten percent through transfer reaction to acceptor)
3 | O=C[C@H](O)[C@@H](O)[C@H](O)[C@H](O)CO [D-Glucose, reference compound] | + (a saccharide-transferred product was detected in an amount over one percent but less than ten percent through transfer reaction to acceptor) | + (a saccharide-transferred product was detected in an amount over one percent but less than ten percent through transfer reaction to acceptor) | + (a saccharide-transferred product was detected in an amount over one percent but less than ten percent through transfer reaction to acceptor) | + (a saccharide-transferred product was detected in an amount over one percent but less than ten percent through transfer reaction to acceptor)
4 | OCC(O)CO [Glycerol] | + (a saccharide-transferred product was detected in an amount over one percent but less than ten percent through transfer reaction to acceptor) | + (a saccharide-transferred product was detected in an amount over one percent but less than ten percent through transfer reaction to acceptor) | + (a saccharide-transferred product was detected in an amount over one percent but less than ten percent through transfer reaction to acceptor) | + (a saccharide-transferred product was detected in an amount over one percent but less than ten percent through transfer reaction to acceptor)
5 | O=C[C@H](O)[C@@H](O)[C@@H](O)[C@H](O)CO [D-Galactose] | + (a saccharide-transferred product was detected in an amount over one percent but less than ten percent through transfer reaction to acceptor) | + (a saccharide-transferred product was detected in an amount over one percent but less than ten percent through transfer reaction to acceptor) | + (a saccharide-transferred product was detected in an amount over one percent but less than ten percent through transfer reaction to acceptor) | ∀ (a saccharide-transferred product was detected in an amount less than one percent through transfer reaction to acceptor)
6 | O=C[C@@H](O)[C@H](O)[C@@H](O)CO [L-Xylose] | ++ (a saccharide-transferred product was detected in an amount over ten percent through transfer reaction to acceptor) | ++ (a saccharide-transferred product was detected in an amount over ten percent through transfer reaction to acceptor) | ++ (a saccharide-transferred product was detected in an amount over ten percent through transfer reaction to acceptor) | + (a saccharide-transferred product was detected in an amount over one percent but less than ten percent through transfer reaction to acceptor)
7 | OC[C@H]1O[C@@H]2O[C@H]3[C@H](O)[C@@H](O)[C@@H](O[C@H]4[C@H](O)[C@@H](O)[C@@H](O[C@H]5[C@H](O)[C@@H](O)[C@@H](O[C@H]6[C@H](O)[C@@H](O)[C@@H](O[C@H]7[C@H](O)[C@@H](O)[C@@H](O[C@H]8[C@H](O)[C@@H](O)[C@@H](O[C@H]1[C@H](O)[C@H]2O)O[C@@H]8CO)O[C@@H]7CO)O[C@@H]6CO)O[C@@H]5CO)O[C@@H]4CO)O[C@@H]3CO [β-Cyclodextrin] | − | − | − | −
8 | OC[C@H]1O[C@@H]2O[C@H]3[C@H](O)[C@@H](O)[C@@H](O[C@H]4[C@H](O)[C@@H](O)[C@@H](O[C@H]5[C@H](O)[C@@H](O)[C@@H](O[C@H]6[C@H](O)[C@@H](O)[C@@H](O[C@H]7[C@H](O)[C@@H](O)[C@@H](O[C@H]8[C@H](O)[C@@H](O)[C@@H](O[C@H]9[C@H](O)[C@@H](O)[C@@H](O[C@H]1[C@H](O)[C@H]2O)O[C@@H]9CO)O[C@@H]8CO)O[C@@H]7CO)O[C@@H]6CO)O[C@@H]5CO)O[C@@H]4CO)O[C@@H]3CO [γ-Cyclodextrin] | − | − | − | −
9 | C[C@H](O)[C@H](O)[C@@H](O)[C@@H](O)C=O [L-Rhamnose] | − | − | − | −
